Data taken from ChEMBL document CHEMBL5523727, “Discovery of KT-413, a Targeted Protein Degrader of IRAK4 and IMiD Substrates Targeting MYD88 Mutant Diffuse Large B-Cell Lymphoma” (J Med Chem, 2024).
pIC50, pKd: −log10 of the molar value.

How the values were obtained:
[1] = target: T1, Protein cereblon/Interleukin-1 receptor-associated kinase 4 (Homo sapiens, UniProt Q9NWZ3+Q96SW2); assay: PROTAC activity at CRBN/IRAK4 in human OCI-Ly10 cells assessed as induction of IRAK4 degradation measured after 24 hrs by MSD assay; assay type: cell-based
Target sequence in this assay (Q9NWZ3 whole entry): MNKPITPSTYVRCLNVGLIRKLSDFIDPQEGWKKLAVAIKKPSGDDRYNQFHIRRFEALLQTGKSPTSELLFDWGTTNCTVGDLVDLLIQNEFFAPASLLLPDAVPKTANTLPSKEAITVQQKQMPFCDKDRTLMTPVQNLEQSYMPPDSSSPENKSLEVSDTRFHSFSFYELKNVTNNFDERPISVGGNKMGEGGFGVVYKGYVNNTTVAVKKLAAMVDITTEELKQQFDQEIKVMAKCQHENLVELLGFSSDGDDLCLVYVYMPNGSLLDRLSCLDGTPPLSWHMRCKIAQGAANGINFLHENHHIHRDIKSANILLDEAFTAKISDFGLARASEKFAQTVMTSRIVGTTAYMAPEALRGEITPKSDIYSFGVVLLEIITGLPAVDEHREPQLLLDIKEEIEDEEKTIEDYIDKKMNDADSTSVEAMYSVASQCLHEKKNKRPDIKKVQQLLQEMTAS
Target sequence in this assay (Q96SW2 whole entry): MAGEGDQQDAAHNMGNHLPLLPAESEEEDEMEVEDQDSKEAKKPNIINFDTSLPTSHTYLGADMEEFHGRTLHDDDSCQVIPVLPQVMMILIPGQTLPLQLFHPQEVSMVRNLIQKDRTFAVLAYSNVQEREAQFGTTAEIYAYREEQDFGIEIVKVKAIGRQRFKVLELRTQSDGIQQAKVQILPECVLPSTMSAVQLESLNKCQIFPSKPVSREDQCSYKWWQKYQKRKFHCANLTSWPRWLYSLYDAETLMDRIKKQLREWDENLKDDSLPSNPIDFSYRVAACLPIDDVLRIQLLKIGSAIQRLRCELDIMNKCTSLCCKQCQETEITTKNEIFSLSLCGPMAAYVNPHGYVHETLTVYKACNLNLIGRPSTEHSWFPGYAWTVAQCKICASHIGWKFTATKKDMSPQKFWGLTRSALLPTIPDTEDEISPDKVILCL

[2] = target: Cereblon/Ikaros (Homo sapiens, UniProt Q96SW2+Q13422); assay: PROTAC activity at CRBN/Ikaros in human OCI-Ly10 cells assessed as induction of Ikaros degradation measured after 24 hrs by MSD assay; assay type: cell-based
Cereblon/Ikaros, sequence (Q96SW2 whole entry): as above
Cereblon/Ikaros, sequence (Q13422 whole entry): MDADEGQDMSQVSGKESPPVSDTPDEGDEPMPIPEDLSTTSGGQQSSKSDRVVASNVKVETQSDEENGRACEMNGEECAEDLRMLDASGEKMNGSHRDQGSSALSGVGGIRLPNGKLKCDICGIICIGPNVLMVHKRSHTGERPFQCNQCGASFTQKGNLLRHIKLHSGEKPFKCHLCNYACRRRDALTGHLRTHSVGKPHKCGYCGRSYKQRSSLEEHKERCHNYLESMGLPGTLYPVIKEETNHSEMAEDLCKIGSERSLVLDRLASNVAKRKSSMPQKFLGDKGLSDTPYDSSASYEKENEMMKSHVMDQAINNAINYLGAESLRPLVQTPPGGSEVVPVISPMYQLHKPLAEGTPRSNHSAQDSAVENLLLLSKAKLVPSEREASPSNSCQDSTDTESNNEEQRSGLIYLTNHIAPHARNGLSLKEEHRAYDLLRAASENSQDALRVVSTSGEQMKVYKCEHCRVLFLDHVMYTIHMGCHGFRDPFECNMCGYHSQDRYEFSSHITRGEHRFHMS

[3] = target: Protein cereblon (Homo sapiens, UniProt Q96SW2); assay: Binding affinity to CRBN (unknown origin) by HTRF assay
Protein cereblon, sequence (Q96SW2 whole entry): as the sequence (Q96SW2 whole entry) above

[4] = Half life in rat plasma; assay type: ADME, cell-free
[5] = Half life in dog plasma; assay type: ADME, cell-free, Canis lupus familiaris
[6] = Half life in Non human primate plasma; assay type: ADME, cell-free; settings: primates
[7] = Half life in human plasma; assay type: ADME, cell-free
[8] = Drug exposure in rat administered as iv bolus dose; assay type: ADME, organism-based; settings: in vivo
[9] = Drug exposure in Non human primate administered as iv dose; assay type: ADME, organism-based; settings: primates, in vivo
[10] = target: Protein cereblon/Interleukin-1 receptor-associated kinase 4 (Homo sapiens, UniProt Q96SW2+Q9NWZ3); assay: Binding affinity to CRBN/IRAK4 […] assessed as dissociation constant by DiscoverX Kd Elect assay
Protein cereblon/Interleukin-1 receptor-associated kinase 4 (Homo sapiens, UniProt Q96SW2+Q9NWZ3), sequence (Q9NWZ3 whole entry): as the sequence (Q9NWZ3 whole entry) above
Protein cereblon/Interleukin-1 receptor-associated kinase 4 (Homo sapiens, UniProt Q96SW2+Q9NWZ3), sequence (Q96SW2 whole entry): as the sequence (Q96SW2 whole entry) above

[11] = test system: OCI-Ly10; assay: Antiproliferative activity against human OCI-Ly10 cells measured after 4 days by CellTiter-Glo Luminescent Cell Viability Assay; assay type: functional, cell-based; settings: Homo sapiens, OCI-Ly10, 96 h
[12] = Passive permeability of the compound in wild type MDCK cells across apical to basolateral side at 1 uM measured for 120 mins by LC-MS/MS analysis; assay type: ADME, cell-based, Canis lupus familiaris; settings: dog, read-out: permeability
[13] = Metabolic stability in human liver microsomes assessed as intrinsic clearance at 1 uM measured upto 60 mins in presence of NADPH by UPLC/MS-MS analysis; assay type: ADME, Microsome; settings: read-out: CLH
[14] = Metabolic stability in rat liver microsomes assessed as intrinsic clearance at 1 uM measured upto 60 mins in presence of NADPH by UPLC/MS-MS analysis; assay type: ADME, Microsome; settings: read-out: CLH
[15] = Clearance in rat at 2 mg/kg, iv by LC-MS/MS analysis; assay type: ADME, organism-based; settings: in vivo
[16] = Volume of distribution at steady state in rat at 2 mg/kg, iv by LC-MS/MS analysis; assay type: ADME, organism-based; settings: in vivo, read-out: Vdss
[17] = Half life in rat at 2 mg/kg, iv by LC-MS/MS analysis; assay type: ADME, organism-based; settings: in vivo
[18] = AUC in rat at 10 mg/kg, po by LC-MS/MS analysis; assay type: ADME, organism-based; settings: in vivo
[19] = Oral bioavailability in rat at 10 mg/kg by LC-MS/MS analysis; assay type: ADME, organism-based; settings: in vivo; for F: po, 10 mg/kg
[20] = target: T1, Protein cereblon/Interleukin-1 receptor-associated kinase 4; assay: PROTAC activity at CRBN/IRAK4 in human OCI-Ly10 cells assessed as induction of IRAK4 degradation measured after 24 hrs by MSD assay relative to control; assay type: cell-based
Target sequence in this assay (Q96SW2 whole entry, looked up): as the sequence (Q96SW2 whole entry) above
Target sequence in this assay (Q9NWZ3 whole entry, looked up): as the sequence (Q9NWZ3 whole entry) above

[21] = AUC in rat at 5 mg/kg, po by LC-MS/MS analysis; assay type: ADME, organism-based; settings: in vivo
[22] = Oral bioavailability in rat at 5 mg/kg by LC-MS/MS analysis; assay type: ADME, organism-based; settings: in vivo

SMILES | DC50 [1] | DC50 [2] | pIC50 [3] | pIC50 [11] | Papp A→B at 2 h, 1 µM [12] | microsomal CLint at 1 µM [13] | microsomal CLint at 1 µM [14] | clearance [15] | Vd [16] | half-life [17] | AUC ([18]; read-out: AUC) | bioavailability [19] | further results
CC(C)(O)c1cc2nc([C@H]3CC[C@H](CN4CC5(CC(CCNc6cccc7c6C(=O)N([C@@H]6CCC(=O)NC6=O)C7=O)C5)C4)CC3)sc2cc1NC(=O)c1cccc(C(F)(F)F)n1 | 19 nM | 9 nM | 6.96 |  |  |  |  |  |  |  |  |  | half-life [4]: 2.38 h; half-life [5]: 3.07 h; half-life [6]: 3.03 h; half-life [7]: 2.92 h; Drug uptake [8]: 48%; Drug uptake [9]: 30%
CN(CCCO[C@H]1C[C@H](Nc2cccc3c2C(=O)N(C2CCC(=O)NC2=O)C3=O)C1)C[C@H]1CC[C@H](n2cc3cc(NC(=O)c4cccc(C(F)(F)F)n4)c(C(C)(C)O)cc3n2)CC1 (stereo partly specified) | 4 nM | 5 nM | 7.68 | 7.85 | 4.9 ×10⁻⁶ cm/s | 68 µL/min/mg | 26 µL/min/mg | 36 mL/min/kg | 9.5 L/kg | 3.8 h | 0.76 µM·h | 15% | pKd [10]: 9.20
CN(C[C@H]1CC[C@H](n2cc3cc(NC(=O)c4cccc(C(F)(F)F)n4)c(C(C)(C)O)cc3n2)CC1)[C@H]1CCC2(CC1)C[C@H](Nc1cccc3c1C(=O)N(C1CCC(=O)NC1=O)C3=O)C2 (stereo partly specified) |  |  |  |  |  |  |  |  |  |  |  |  | Emax [20]: 86%
COc1cc2nc([C@H]3CC[C@H](CN4CC5(CC(CCNc6cccc7c6C(=O)N(C6CCC(=O)NC6=O)C7=O)C5)C4)CC3)sc2cc1NC(=O)c1cccc(C(F)(F)F)n1 (stereo partly specified) | 35 nM | 14 nM |  | 7.14 | 0.18 ×10⁻⁶ cm/s | 1.5 µL/min/mg | 1 µL/min/mg | 4.8 mL/min/kg | 9.7 L/kg | 24 h |  |  | AUC [21]: 2.5 µM·h; bioavailability [22]: 23%
CC(C)(O)c1cc2c(cnn2CCCCCCCCCNc2cccc3c2C(=O)N(C2CCC(=O)NC2=O)C3=O)cc1NC(=O)c1cccc(C(F)(F)F)n1 (stereo unspecified) | > 10000 nM | 56 nM | 6.06 | 6.18 |  |  |  |  |  |  |  |  | Emax [20]: 30%; pKd [10]: < 5.52
COc1cc2nn([C@H]3CC[C@H](CN4CC5(CC(CCNc6cccc7c6C(=O)N(C6CCC(=O)NC6=O)C7=O)C5)C4)CC3)cc2cc1NC(=O)c1cccc(C(F)(F)F)n1 (stereo partly specified) | 8 nM | 9 nM | 7.57 | 7.32 | 1 ×10⁻⁶ cm/s | 0.79 µL/min/mg | 1.6 µL/min/mg |  | 29 L/kg | 17 h |  |  | AUC ([18]; po, 10 mg/kg): 0.13 µM·h; F [19]: 4.2%
COc1cc2nc([C@H]3CC[C@H](CN4CC5(CC(CCNc6cccc7c6C(=O)N(C6CCC(=O)NC6=O)C7=O)C5)C4)CC3)n(C)c2cc1NC(=O)c1cccc(C(F)(F)F)n1 (stereo partly specified) | 33 nM | 2 nM |  | 7.46 | 0.4 ×10⁻⁶ cm/s | 7 µL/min/mg | 2.2 µL/min/mg | 41 mL/min/kg | 33 L/kg | 11 h | 0.09 µM·h | 2.3% | 
COc1cc2nc([C@H]3CC[C@H](CN4CC5(CC(CCNc6cccc7c6C(=O)N(C6CCC(=O)NC6=O)C7=O)C5)C4)CC3)cn2cc1NC(=O)c1cccc(C(F)(F)F)n1 (stereo partly specified) | 38 nM | 26 nM |  | 6.81 | 0.64 ×10⁻⁶ cm/s | < 1.8 µL/min/mg | < 1.8 µL/min/mg | 40 mL/min/kg | 43 L/kg | 15 h | 0.01 µM·h | < 1% | 
CC(C)(O)c1cc2nn([C@H]3CC[C@H](CN4CCC(O[C@H]5C[C@H](Nc6cccc7c6C(=O)N(C6CCC(=O)NC6=O)C7=O)C5)CC4)CC3)cc2cc1NC(=O)c1cccc(C(F)(F)F)n1 (stereo partly specified) | 5 nM | 470 nM | 7.59 | 5.64 | 26 ×10⁻⁶ cm/s | 4.1 µL/min/mg | 3.8 µL/min/mg | 7 mL/min/kg | 8.9 L/kg | 16 h | 5.3 µM·h | 29% | 
O=C1CCC(N2C(=O)c3cccc(NCC4CC5(CCN(C[C@H]6CC[C@H](n7cc8cc(NC(=O)c9cccc(C(F)(F)F)n9)c(C(F)F)cc8n7)CC6)CC5)C4)c3C2=O)C(=O)N1 (stereo partly specified) | 56 nM | 69 nM | 7.24 | 6.85 | 2.7 ×10⁻⁶ cm/s | < 1.8 µL/min/mg | < 1.8 µL/min/mg |  | 11 L/kg | 29 h |  |  | AUC ([18]; po, 10 mg/kg): 1.5 µM·h; F [19]: 16%
CC(C)(O)c1cc2nn([C@H]3CC[C@H](CN4CCC5(CC4)CC(CNc4cccc6c4C(=O)N(C4CCC(=O)NC4=O)C6=O)C5)CC3)cc2cc1NC(=O)c1cccc(C(F)(F)F)n1 (stereo partly specified) | 6 nM | 6 nM | 7.36 | 8.10 | 2.2 ×10⁻⁶ cm/s | 2.8 µL/min/mg | 2.1 µL/min/mg | 15 mL/min/kg | 13 L/kg | 11 h |  |  | AUC [21]: 0.06 µM·h; bioavailability [22]: 1%
COc1cc2nn([C@H]3CC[C@H](CN4CCC5(CC4)CC(CNc4cccc6c4C(=O)N(C4CCC(=O)NC4=O)C6=O)C5)CC3)cc2cc1NC(=O)c1cccc(C(F)(F)F)n1 (stereo partly specified) | 16 nM | 43 nM | 7.18 | 7.08 | 1.3 ×10⁻⁶ cm/s | 2.7 µL/min/mg | 1.6 µL/min/mg |  | 11 L/kg | 25 h |  |  | AUC ([18]; po, 10 mg/kg): 1.88 µM·h; F [19]: 11%
CC(C)(O)c1cc2nc([C@H]3CC[C@H](CN4CC5(CC(CCNc6cccc7c6C(=O)N([C@H]6CCC(=O)NC6=O)C7=O)C5)C4)CC3)sc2cc1NC(=O)c1cccc(C(F)(F)F)n1 | 6.3 nM | 2 nM | 8.52 |  |  |  |  |  |  |  |  |  | half-life [4]: 2.15 h; half-life [5]: 2.58 h; half-life [6]: 3.35 h; half-life [7]: 4.03 h; Drug uptake [8]: 57%; Drug uptake [9]: 52%
CN(CCCOc1cccc2c1CN(C1CCC(=O)NC1=O)C2=O)C[C@H]1CC[C@H](n2cc3cc(NC(=O)c4cccc(C(F)(F)F)n4)c(C(C)(C)O)cc3n2)CC1 (stereo partly specified) | 5 nM | > 500 nM |  | 6.63 | 4.8 ×10⁻⁶ cm/s | 19 µL/min/mg | 44 µL/min/mg |  |  |  |  |  | Emax [20]: 80%; pKd [10]: 9.66
CN(CCCOCCCNc1cccc2c1C(=O)N(C1CCC(=O)NC1=O)C2=O)C[C@H]1CC[C@H](n2cc3cc(NC(=O)c4cccc(C(F)(F)F)n4)c(C(C)(C)O)cc3n2)CC1 (stereo partly specified) | 12 nM | 21 nM | 7.49 | 6.57 | 7.5 ×10⁻⁶ cm/s | 60 µL/min/mg | 53 µL/min/mg |  |  |  |  |  | pKd [10]: 9.18
CC(C)(O)c1cc2nn([C@H]3CC[C@H](CN4CCC5(CC4)CC(Nc4cccc6c4C(=O)N(C4CCC(=O)NC4=O)C6=O)C5)CC3)cc2cc1NC(=O)c1cccc(C(F)(F)F)n1 (stereo partly specified) | 3 nM | 27 nM | 8.00 | 7.60 | 2.8 ×10⁻⁶ cm/s | 1.2 µL/min/mg | 2.7 µL/min/mg | 13 mL/min/kg | 13 L/kg | 12 h | 1.4 µM·h | 17% | 
